Read-outs that look alike come from different tables or passages of the source.

Series [1] is described as follows: Turbidity, derived count rate of scattered light. The class given is physicochemical. Conditions: for Count Rate: derived count rate of scattered light (turbidity); for Log10 Count Rate: turbidity, derived count rate of scattered light, data of Figure 2D.
The nature of series [2]: Turbidity, derived count rate of scattered light. The class given is physicochemical. The following applies: for Count Rate / kcps: derived count rate of scattered light at 633 nm, 173°, from zeta-potential measurement, 0.1 mg/mL in 1 mM KCl after 1 d at 1 mg/mL in PBS, turbidity / microscopic aggregation, mean of triplicate. The method in brief: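 One-day room-temperature aggregation at 1 mg/mL in PBS (pH 7.4) preceded measurement; samples then went into 1 mM KCl. Triplicates per sample, two independent experiments averaged.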

Series [3] is classed as physicochemical. Details: key to Fibril / Fibril Formation / TEM 2cat / Fibril: 1 = fibrils present; 0 non-fibrillar structures. The following applies: for Fibril / Fibril Formation: 1 mg/mL, uranyl acetate stain, qualitative.
The nature of series [4]: Zeta-potential measurement. In kind it is physicochemical. The method in brief: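 PBS pH 7.4, 1 mg/mL peptide (DMSO stock), 1 d RT aggregation; diluted in 1 mM KCl pre-read; mobility → zeta (Smoluchowski); n = 3, 2 expts averaged.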
A short description of series [5]: β-sheet content by ATR-FT-IR. The class given is physicochemical. The following applies: for b -sheet / %: Fig. S7 panel A, β-sheet content by ATR-FT-IR. The method, boiled down:
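β-sheet content came from ATR FT-IR spectra of lyophilized 1 mg/mL nanofibril solution (64 scans, 2 cm^-1 resolution). Conversion was measured by separating free monomer with a 3 kDa cutoff filter, then comparing fluorescamine fluorescence (ex 365/em 470 nm, 20 min RT) of filtrate versus unfiltered sample, in triplicate.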

The mark [6] stands for this setting: Log10 of derived count rate of scattered light (turbidity).
[7] abbreviates: log10 of derived count rate of scattered light (turbidity).
The mark [8] stands for this setting: logarithm of count rate in kcps.
[9] abbreviates: turbidity, Log10 of derived count rate of scattered light, Figure 3A source data.
The mark [10] stands for this setting: Fig S10 panel D, fibril category by TEM.
Where [11] appears, read: TEM, 1 = fibrils present, 0 = non-fibrillar.
[12] abbreviates: TEM, 1 = fibrils present, 0 = non-fibrillar structures.
Where [13] appears, read: category: fibrils present or non-fibrillar.
Where [14] appears, read: zeta potential of peptide assemblies.
Where [15] appears, read: zeta-potential of peptide, source data of Figure 2C.
[16] abbreviates: zeta-potential of the peptide assemblies, mean, Figure 3A source data.
The mark [17] stands for this setting: turbidity, log10 of derived count rate of scattered light.
Setting [18] is: FigS12 panel A, fibril category by TEM.

In the case of KIKIQIC, the “Count Rate” value in series [1] was 980.7. Moreover, the “Log10 Count Rate” value in series [1], in series [2] (setting [6]), in series [2] (setting [7]), in series [2] (setting [8]) and in series [2] (setting [9]) was 2.992 each time. In addition, the “Count Rate / kcps” value in series [2] was 981 kcps. Further, the “Zeta Count Rate” value in series [2] (mean of the 3 replicates) turned out to be 980.7 kcps; in series [2] (replicate 1), 1115.50 kcps; in series [2] (replicate 2), 1268.60 kcps; in series [2] (replicate 3) it was 557.90 kcps. The “TEM 2cat” value in series [3] (setting [10]) and in series [3] (setting [13]) was 1 in each case. Further, the Fibril in series [3] (Fig S10 panel E), in series [3] (setting [11]) and in series [3] (setting [12]) was 1 each time. The “Fibril / Fibril Formation” value in series [3] (TEM) stood at 1. Also, the Zeta-Pot. in series [4] (setting [14]) came to 19.93. Also, the “Zeta-Potential / mV” value in series [4] (setting [15]) came to 19.97 mV; in series [4] (setting [16]), 19.93 mV. Also, the “FTIR ß-sheet content” value in series [5] came to 52.93%. In series [5], the “b -sheet / %” value is listed as 52.93%.
In the case of QCKFKQFFNM, in series [1], the “Count Rate” value was found to be 10384.7. Besides, the “Log10 Count Rate” value in series [1], in series [2] (setting [6]), in series [2] (setting [9]) and in series [2] (setting [17]) was 4.016 each time. Moreover, the “Count Rate / kcps” value in series [2] is on record as 10385 kcps. Also, the “TEM 2cat” value in series [3] (Fig S10 panel D) and in series [3] (setting [13]) was 1 in each case. Moreover, the Fibril in series [3] (Fig S10 panel E), in series [3] (setting [11]) and in series [3] (setting [12]) was 1 throughout. Also, the “Fibril / Fibril Formation” value in series [3] (TEM) is 1. Besides, the Zeta-Pot. in series [4] turned out to be 13.67. For the same substance, the results for the “Zeta-Potential / mV” value in series [4] (setting [15]) and in series [4] (setting [16]) were 15.12 mV and 13.67 mV, respectively. The “b -sheet / %” value in series [5] was 41.8396%.
With KFKQFFINMWQ, the “Count Rate” value in series [1] worked out at 8996. Further, the “Log10 Count Rate” value in series [1], in series [2] (setting [6]), in series [2] (setting [7]) and in series [2] (setting [9]) was 3.954 throughout. For the same substance, the “Count Rate / kcps” value in series [2] came out at 8996 kcps. For the same substance, the “TEM 2cat” value in series [3] (setting [10]) and in series [3] (setting [13]) was 1 each time. Besides, the “Fibril / Fibril Formation” value in series [3] (TEM) turned out to be 1. Moreover, the Fibril in series [3] (setting [11]) and in series [3] (setting [12]) was 1 each time. In addition, in series [4], the Zeta-Pot. is recorded as 7.99. In addition, the “Zeta-Potential / mV” value is 10.28 mV in series [4] (setting [15]) and 7.99 mV in series [4] (setting [16]). Also, the “b -sheet / %” value in series [5] is on record as 38.37%.
As for MKIKIQINM, in series [1], the “Count Rate” value is listed as 981.3. In addition, the “Log10 Count Rate” value in series [1], in series [2] (setting [6]), in series [2] (setting [7]) and in series [2] (setting [9]) was 2.9918 in each case. In addition, in series [2], the “Count Rate / kcps” value stood at 981 kcps. Also, the “TEM 2cat” value in series [3] (setting [10]) and in series [3] (setting [13]) was 1 in each case. Besides, in series [3] (TEM), the “Fibril / Fibril Formation” value is 1. In addition, the Fibril in series [3] (setting [11]) and in series [3] (setting [12]) was 1 throughout. Also, the Zeta-Pot. in series [4] (setting [14]) is recorded as 9.13. Besides, the “Zeta-Potential / mV” value in series [4] (setting [15]) worked out at 9.332 mV; in series [4] (setting [16]), 9.13 mV. For the same substance, the “b -sheet / %” value in series [5] was 38.6306%.
On to CEIEIQINMWQ, for which the “Count Rate” value in series [1] was found to be 1570. The “Log10 Count Rate” value in series [1], in series [2] (setting [6]), in series [2] (setting [7]) and in series [2] (setting [9]) was 3.196 throughout. Also, the “Count Rate / kcps” value in series [2] worked out at 1570 kcps. The “TEM 2cat” value in series [3] (setting [10]) and in series [3] (setting [13]) was 1 throughout. The Fibril in series [3] (Fig S10 panel E), in series [3] (setting [11]) and in series [3] (setting [12]) was 1 throughout. The “Fibril / Fibril Formation” value in series [3] (TEM) was determined as 1. The Zeta-Pot. in series [4] (setting [14]) is reported as -25.8. The “Zeta-Potential / mV” value in series [4] (setting [15]) was -26.07 mV; in series [4] (setting [16]), -25.8 mV. For the same substance, the “b -sheet / %” value in series [5] is recorded as 49.9%.
Regarding KVKVQVV, in series [1], the “Count Rate” value is recorded as 27.73. The “Log10 Count Rate” value in series [1], in series [2] (setting [6]), in series [2] (setting [7]) and in series [2] (setting [9]) was 1.443 throughout. In addition, the “Count Rate / kcps” value in series [2] came out at 28 kcps. Besides, the “TEM 2cat” value in series [3] (setting [10]) and in series [3] (setting [18]) was 0 in each case. In addition, the Fibril is on record as 0 in series [3] (FigS12 panel B, TEM); 0 in series [3] (setting [11]); 0 in series [3] (setting [12]). In series [3] (TEM), the “Fibril / Fibril Formation” value was found to be 0. Also, the Zeta-Pot. in series [4] (setting [14]) is recorded as -7.92. Further, the “Zeta-Potential / mV” value in series [4] (setting [15]) is on record as -4.675 mV; in series [4] (setting [16]) it was -7.92 mV. The “b -sheet / %” value in series [5] was found to be 45.1%.
For ILKNLSRSRKIKIQIC, the “Count Rate” value in series [1] is on record as 2392. The “Log10 Count Rate” value in series [1], in series [2] (setting [6]), in series [2] (setting [7]) and in series [2] (setting [9]) was 3.379 in each case. For the same substance, the “Count Rate / kcps” value in series [2] was 2392 kcps. In addition, the “TEM 2cat” value in series [3] (setting [10]) and in series [3] (setting [13]) was 1 throughout. Further, in series [3] (TEM), the “Fibril / Fibril Formation” value is 1. Moreover, the Fibril in series [3] (setting [11]) and in series [3] (setting [12]) was 1 each time. Besides, the Zeta-Pot. in series [4] (setting [14]) came to 18. Besides, the “Zeta-Potential / mV” value in series [4] (setting [15]) is reported as 19.25 mV; in series [4] (setting [16]), 18 mV. Also, the “b -sheet / %” value in series [5] turned out to be 37.6%.
For the substance CSISIQI, the “Count Rate” value in series [1] is on record as 10241.1. Moreover, the “Log10 Count Rate” value in series [1], in series [2] (setting [6]), in series [2] (setting [7]), in series [2] (setting [8]) and in series [2] (setting [9]) was 4.01 throughout. Also, the “Count Rate / kcps” value in series [2] was found to be 10241 kcps. The “TEM 2cat” value in series [3] (setting [10]) and in series [3] (setting [18]) was 1 throughout. The Fibril is listed as 1 in series [3] (Fig S10 panel E); 1 in series [3] (FigS12 panel B, TEM); 1 in series [3] (setting [11]); 1 in series [3] (setting [12]). The “Fibril / Fibril Formation” value in series [3] (TEM) turned out to be 1. Besides, the Zeta-Pot. in series [4] (setting [14]) is -25.93. Further, the “Zeta-Potential / mV” value in series [4] (setting [15]) was -26.07 mV; in series [4] (setting [16]), -25.93 mV. Further, the “b -sheet / %” value in series [5] is reported as 58.57%.
As for CKFKQFFNMWQ, in series [1], the “Count Rate” value is 8210. For the same substance, the “Log10 Count Rate” value in series [1], in series [2] (setting [6]), in series [2] (setting [9]) and in series [2] (setting [17]) was 3.914 in each case. For the same substance, in series [2], the “Count Rate / kcps” value is on record as 8210 kcps. For the same substance, the “TEM 2cat” value in series [3] (Fig S10 panel D) and in series [3] (setting [13]) was 1 in each case. The Fibril in series [3] (Fig S10 panel E), in series [3] (setting [11]) and in series [3] (setting [12]) was 1 each time. Moreover, the “Fibril / Fibril Formation” value in series [3] (TEM) is 1. The Zeta-Pot. in series [4] worked out at 8.563. The “Zeta-Potential / mV” value turned out to be 10.915 mV in series [4] (setting [15]) and 8.56 mV in series [4] (setting [16]). The “b -sheet / %” value in series [5] came out at 59.11%.
With KIEIQINM, the “Count Rate” value in series [1] was determined as 274.8. Moreover, the “Log10 Count Rate” value in series [1], in series [2] (setting [6]), in series [2] (setting [7]) and in series [2] (setting [9]) was 2.439 throughout. The “Count Rate / kcps” value in series [2] is recorded as 275 kcps. Besides, the “TEM 2cat” value in series [3] (setting [10]) and in series [3] (setting [18]) was 1 each time. The Fibril worked out at 1 in series [3] (FigS12 panel B, TEM); 1 in series [3] (setting [11]); 1 in series [3] (setting [12]). The “Fibril / Fibril Formation” value in series [3] (TEM) is listed as 1. Besides, the Zeta-Pot. in series [4] (setting [14]) is -0.35. The entries for the “Zeta-Potential / mV” value in series [4] (setting [15]) and in series [4] (setting [16]) were -6.992 mV and -0.35 mV, respectively. Further, the “b -sheet / %” value in series [5] was 42.99%.

The values are drawn from PMC10447463, “Data-mining unveils structure–property–activity correlation of viral infectivity enhancing self-assembling peptides” (Nature Communications, 2023).
